In US20120064102A1, “PEPTIDE INDUCING XAGE-1B-SPECIFIC IMMUNE REACTION AND UTILIZATION OF SAME” (NATIONAL UNIVERSITY CORPORATION OKAYAMA UNIVERSITY, priority 2009, published 2012):

B1: XAGE-1b protein: XAGE-1b protein (81 amino acids, SEQ ID. No. 1) synthesized by GL Biochem; cancer/testis antigen (protein, listed as Homo sapiens)
chain: MESPKKKNQQLKVGILHLGSRQKKIRIQLRSQCATWKVICKSCISQTPGINLDLGSGVKVKIIPKEEHCKMPEAGEEQPQV

Key:
U937 = experiment: intake of FAM-conjugated NY-ESO-1 f peptide into antigen-presenting cell; type: cell-based, human; details: 3 hours after the start of culturing; U937 primed with 20 ng/ml PMA
Method: Initially, the inventors of the present invention analyzed the point (A). Specifically, U937, which is a human monocytic leukemia strain, was subjected to priming using 20 ng/ml of PMA, and then cultured with NY-ESO-1 f peptide conjugated with FAM™. Localization of NY-ESO-1 f peptide in U937 was confirmed by observing fluorescence of FAM™ which is a fluorescent pigment.
FIG. 27 is a view illustrating that NY-ESO-1 f peptide was taken into an antigen-presenting cell (U937).

[1] = tested on: CD8-positive T cell clones (TK-f01 2H10); experiment: antigen presentation by MHC class I, cross-presentation (IFN-γ ELISA); type: cell-based, human
Method: Further, it was confirmed that NY-ESO-1 f peptide is presented as an antigen also by MHC class I, i.e., cross-presented (FIG. 29). Specifically, in a non-serum AIM-V culture medium containing 1 μM of NY-ESO-192-100 short-chain peptide, 1 μM of NY-ESO-191-110 f peptide or 10 μg/ml of recombinant protein, dendritic cells (5×10^5 cells/ml) were cultured and pulsed with antigen, in the presence/absence of 10 μM of cytochalasin B. The cells were washed and then CD8-positive T cell clones (TK-f01 2H10) (5×10^3 cells) were cultured at 37° C. for 24 hours with the dendritic cells (5×10^3 cells) pulsed with the antigens. The amount of production of IFN-γ by antigen stimulation was measured by ELISA.

[2] = tested on: NY-ESO-1-specific CD4-positive T cell clones (E-8A1); experiment: antigen presentation by MHC class II (IFN-γ ELISA); type: cell-based, human
Method: Specifically, NY-ESO-1-specific CD4-positive T cell clones (E-8A1) were subjected to IFN-γ ELISA by use of self-EBV-B cells as antigen-presenting cells, in the presence of peptide NY-ESO-1 f peptide at a temperature condition of 4° C. or 37° C.
“E/T ratio” of the horizontal axis of FIG. 28 indicates a ratio of co-culturing between Effector (T cell) and Target (EBV-B cell).

[3] = tested on: HLA-B*3501-restricted CD8-positive T cell clones (8C187-4); experiment: IFN-γ ELISA with CD8-positive T cell clones 8C187-4; type: cell-based, human; details: clone 8C187-4
Description: FIG. 19 is a view showing that peptide 21-36 is a peptide recognized by T cell clones (8C187-4).
As shown in (c) of FIG. 19, when CD8-positive T cell clones (8C187-4) obtained from KLU 187 were stimulated with EBV-B cells expressing HLA-B*3501 as antigen-presenting cells, production of XAGE-1b-specific IFN-γ were detected.

[4] = tested on: XAGE-1b-specific CD4-positive T cells (4C187-1); experiment: natural epitope recognition by CD4 clone T-cells 4C187-1; type: cell-based, human; details: clone 4C187-1
[5] = tested on: XAGE-1b-specific IgG antibody; experiment: ELISA of XAGE-1b-specific IgG antibody in serums; type: binding, human
Method: Full-length XAGE-1b protein (carbonic acid buffer, pH 9.6) with a concentration of 1 μg/ml was immobilized overnight on a 96 well plate (NUNC) at 4° C., and then the plate was washed with a washing solution (PBS/0.1% TWEEN). To the washed plate, 5 FCS/PBS was added and the plate was subjected to blocking at 37° C. for 1 hour. After the blocking, serum diluted 100 times, 300 times, 900 times, or 2700 times was added and the resultant was caused to react at 37° C. for 2 hours. Subsequently, the resultant was washed with the washing solution, and then peroxidase-binding goat anti-human IgG antibody (diluted 5000 times) (Jackson ImmunoResearch Laboratories, Inc.) was added to the resultant and this mixture was caused to react at 37° C. for 1 hour. After the reaction, the resultant was washed with the washing solution and a substrate solution to which hydrogen peroxide was added (solution obtained by dissolving orthophenylendiamine in 0.05M citric acid buffer (pH 5.0)) was added to stain the resultant. After the staining, 6N sulfuric acid was added to stop the reaction, and absorbance (wavelength of 490 nm) thereof was measured using a microplate reader (Bio-Rad Laboratories, Inc.).
Whether or not humoral immune responses to XAGE-1b were present were examined for 200 cases of subjects suffering from non-small-cell lung cancer (including 69 cases of subjects suffering from lung adenocarcinoma in the late stage) who had consulted Kawasaki Medical School Hospital from 2005 to 2009, and for 50 cases of normal healthy subjects serving as controls.
Specifically, whether or not XAGE-1b-specific IgG antibody was present in serums sampled from lung cancer patients was examined by ELISA.
Among them, the lung cancer patients of the very-strong zone, the strong zone, and the weak zone were regarded as serum antibody titer-positive patients.

| Molecule | intake into antigen-presenting cells (U937) | effect of cytochalasin B on reaction ([1]; 10 μM of cytochalasin B) | antigen presentation by MHC class I ([1]; dendritic cells pulsed with 1 μM peptide) | effect of low temperature on reaction ([2]; low temperature (4° C.) blocks intake) | antigen presentation by MHC class II ([2]; self-EBV-B cells as antigen-presenting cells, 4° C. or 37° C.) | reaction on stimulation with self-dendritic cells pulsed with antigen [3] | reaction on stimulation with self-dendritic cells pulsed with antigen [4] | antibody reaction to XAGE-1b ([5]; 50 cases of normal healthy subjects) | XAGE-1b serum antibody titer-positive cases ([5]; Non-small-cell lung cancer (n = 200)) | XAGE-1b serum antibody titer-positive cases ([5]; Stage 3B/4 lung adenocarcinoma (n = 69)) |
| --- | --- | --- | --- | --- | --- | --- | --- | --- | --- | --- |
| NY-ESO-1 f peptide: long-chain peptide made up of 20 amino acids of NY-ESO-1 (YLAMPFATPMEAELARRSLA) | taken into the cells | decrease in a reaction to CD8-positive T cells | presented as an antigen by MHC class I | decrease in a reaction to CD4-positive T cells | presented as an antigen by MHC class II |  |  |  |  |  |
| B1 |  |  |  |  |  | production of antigen-specific IFN-γ | production of antigen-specific IFN-γ | no antibody reaction to XAGE-1b was observed | 20 (10.0%) n (%) | 13 (18.8%) n (%) |
